The subject of data set [1] is LNCaP tumors. Nature of the data set: Tumor harvest at necropsy and direct scintillation counting of tumor radioactivity. It counts as in vivo, mice. The note with it: Day 3 (72 hours) tumor harvest. From the text: The dotted line represents the summation of the counts in the 617-Lu^177 plus the J591-Lu^177 tumors. […] To confirm the accuracy of this experiment which was based on […] imaging, determinations were done by tumor harvest at necropsy followed by direct counting of the radioactivity within the previously imaged tumors and calculating counts per mg of tumor.
At the Day 3 tumor harvest, the mean counts per mg tumor in each of the groups is shown in the table below (and FIG. 2) further confirming the imaging results.
In this animal study, which is a continuation of the imaging study described in Example 1, when the imaging was completed at 72 hours, the animals were necropsied, the tumors harvested, weighed and counted in a scintillation counter to derive the amount of radioactivity per mg (cpm/mg) of tumor. The tumors treated with J591-Lu^177 had 2.2-fold the counts of those tumors that had gotten PSMA-617-Lu^177 alone (FIG. 2). The tumors treated with the combination had counts 48% greater than the sum of each of its individual components, meeting the definition of synergy (FIG. 2). The physical counting of the tumor radioactivity confirmed the results obtained by imaging.

In data set [2] the test system is LNCaP tumors. Nature of the data set: SPECT/CT imaging of radioactivity within tumors after injection. To be noted: for activity concentration in tumor (imaging): mean of group, LNCaP tumors in mice. It counts as in vivo, mice. The procedure:
In this animal study, three groups of mice were implanted with LNCaP tumors (in Matrigel) with 6-8 tumors per group. After the tumors were established, one group was injected with J591-Lu^177, a 2nd group with PSMA-617-Lu^177 and a 3rd group got both PSMA617-Lu^177 and J591-Lu^177.
Radiolabeling both PSMA-617 and J591 allowed both to be tracked individually as well as their total when combined. All mice were imaged in a Siemens Inveon dedicated animal multimodality SPECT/CT. Coaxial CT images were acquired for anatomical and attenuation information prior to each SPECT acquisition to measure the radioactivity within the tumors at the 1, 4, 24 and 72 hour time points after injection. SPECT images were reconstructed using the Siemens OSEM algorithm with corrections for scatter, attenuation, decay, and ^177Lu emission spectrum. The mean number of counts within the tumors in each group and time point was calculated and plotted. THe imaging data measured an activity concentration in Bq/mL of tumor: […]

Take `O=C(O)CC[C@H](NC(=O)N[C@@H](CCCCNC(=O)[C@H](Cc1ccc2ccccc2c1)NC(=O)[C@H]1CC[C@H](CNC(=O)CN2CCN(CC(=O)O)CCN(CC(=O)O)CCN(CC(=O)O)CC2)CC1)C(=O)O)C(=O)O` [PSMA-617-Lu^177]: the Mean cpm/mg tumor in the data set on LNCaP tumors [1] is reported as 7.536 cpm/mg. For the same compound, the “course of tumor counts over time (imaging, in words)” value in the data set on LNCaP tumors [2] (1 to 72 hour, LNCaP tumors) is recorded as “high uptake at 1 hour that then diminished over time”. Further, the “activity concentration in tumor (imaging)” value in the data set with LNCaP tumors [2] (1 hr after injection) is on record as 29.55 Bq/mL; in the data set on LNCaP tumors [2] (4 hr after injection) it was 30.62 Bq/mL; in the data set with LNCaP tumors [2] (24 hr after injection) it was 27.1 Bq/mL; in the data set with LNCaP tumors [2] (72 hr after injection), 12.48 Bq/mL.

(Values after patent US20240000979A1, “METHODS AND COMPOSITIONS FOR SYNERGISTIC UPTAKE AND RETENTION OF SMALL MOLECULE LIGANDS” (CORNELL UNIVERSITY, priority 2020, published 2024).)
